From US20080194590A1, “4-Piperazinylthieno [2,3-D] Pyrimidine Compounds as Platelet Aggregation Inhibitors” (Pfizer Inc, priority 2005, published 2008) come the findings set out here.

For test [1], the target named is T1, P2Y12 receptor (Homo sapiens, UniProt Q9H244). Kind of test: Human P2Y12 recombinant cell membrane binding assay with 33P 2MeS-ADP (Assay 3). As to conditions: for IC50 / Ki: HEK cell membranes expressing P2Y12, multiple lines = multiple runs; for [33P]-2MeS-ADP Binding to Recombinant Human P2Y12 Membranes (Assay 3) % Inhibition / inhibition at 10 µM: highest concentration tested 10 μM; for inhibition at 10 µM: read-out: [33P]-2MeS-ADP Binding to Recombinant Human P2Y12 Membranes (Assay 3) % Inhibition. Further details: expressed in transfected cells; host or cells: HEK cells. The procedure: 3. Human P2Y12 Recombinant Cell Membrane Binding Assay with ^33P 2MeS-ADP.
The ability of a test compound to bind to the P2Y12 receptor was evaluated in a recombinant cell membrane binding assay. In this competitive binding assay, the test compound competed against a radiolabelled agonist for binding to the P2Y12 receptor, expressed on the cell membrane. Inhibition of binding of the labeled material was measured and correlated to the amount and potency of the test compound. Data from this assay are presented in Table F. This binding assay is a modification of the procedure in Takasaki, J. et. al, Mol. Pharmacol., 2001, Vol. 60, pg. 432.
HEK cells were transfected with the pDONR201P2Y12 vector and cultured in MEM with GlutaMAX I, Earle's salts, 25 mM HEPES (Gibco # 42360-032) containing 10% dialyzed FBS (Gibco # 26400-044), 100 μM nonessential amino acids (Gibco # 11140-050), 1 mM sodium pyruvate (Gibco # 11360-070), 0.05% geneticin (Gibco #10131-027), 3 μg/mL blasticidin (Fluka brand from Sigma # 15205), and 0.5 μg/mL puromycin (Sigma # P-8833).
Confluent cells were washed once with cold DPBS (Gibco # 14190-136). Fresh DPBS was added and the cells were scraped and centrifuged at 500×g for 5 minutes at 4° C. The cell pellets were resuspended in TEE buffer (25 mM Tris, 5 mM EDTA, 5 mM EGTA) containing 1 protease inhibitor cocktail tablet (Roche # 1 873 580) per 50 mL (called TEE+Complete) and can be flash frozen at this point.
In one embodiment, frozen cell pellets were used to prepare the membranes. In that embodiment, the frozen cell pellets were thawed on ice. In another embodiment, cell pellets may be used without flash freezing before moving on to the next step.
Cell pellets were resuspended in TEE buffer+Complete and homogenized in a glass dounce for 12 strokes. The cell suspension was centrifuged at 500×g for 5 minutes at 4° C. The supernatant was saved and centrifuged at 20,000×g for 20 minutes at 4° C. This supernatant was discarded and the cell pellet resuspended in TEE buffer+Complete and homogenized in a glass dounce for 12 strokes. This suspension was centrifuged at 20,000×g for 20 minutes at 4° C. and the supernatant discarded. The pellet was resuspended in assay buffer (50 mM Tris, 100 mM NaCl, 1 mM EDTA) containing one protease inhibitor cocktail tablet per 50 mL, and can be flash frozen as 1 mL aliquots at this point.
Dry compounds were diluted as 10 mM DMSO stocks and tested in a seven-point, three-fold dilution series run in triplicate beginning at 10 μM, final concentration. A 1 mM DMSO intermediate stock was made in a dilution plate and from this the seven dilutions were made to 5× the final concentration in assay buffer containing 0.02% BSA.
To a polypropylene assay plate (Costar # 3365) the following were added: a) 30 μL of assay buffer containing one protease inhibitor cocktail tablet per 50 mL; b) 30 μL of 1 nM ^33P 2MeS-ADP made in assay buffer containing 0.02% BSA and 12.5 mg/mL ascorbic acid; 30 μL of cold 1.5 μM 2MeS-ADP for the positive control wells, or assay buffer containing 0.02% BSA and 12.5 mg/mL ascorbic acid for the negative control wells, or 5× drug dilution; and 60 μL of 1 ug/well membranes.
The plates were incubated at room temperature for 1 hour. The reaction was stopped using a cell harvester to transfer the reaction mixture onto GF/B UniFilter plates (Perkin Elmer # 6005177), and washed three times with wash buffer (50 mM Tris), filtering between each wash. The filter plates were dried for approximately 20 minutes in an oven at 50° C. Back seals were adhered to the filter plates and 25 uL of Microscint 20 scintillation fluid (Perkin Elmer # 6013621) were added. The filter plates were sealed, shaken for 30 minutes, and counted on a Top Count. Data were analyzed using a four-parameter curve fit with a fixed minimum and maximum experimentally defined as the average positive and negative controls on each plate, and with a hill slope equal to one.

In test [2] the target is T1, P2Y12 receptor. Kind of test: Inhibition of [33P]2MeS-ADP binding to washed human platelet membranes (Assay 1). Further details: the P2Y12 receptor, which is found on the surface of platelets; tissue Interstate Blood bank, Memphis, Tenn; host or cells: human platelets from platelet rich plasma. As to conditions: for inhibition at 10 µM: highest concentration tested 10 μM. The procedure: 1. Inhibition of [^33P]2MeS-ADP Binding to Washed Human Platelet Membranes. The ability of a test compound to bind to the P2Y12 receptor was evaluated in a platelet membrane binding assay. In this competitive binding assay, the test compound competed against a radiolabelled agonist for binding to the P2Y12 receptor, which is found on the surface of platelets. Inhibition of binding of the labeled material was measured and correlated to the amount and potency of the test compound. Data from this assay are presented in Table F. Platelet rich plasma (“PRP”) was obtained from the Interstate Blood bank, Memphis, Tenn. Platelet rich plasma was prepared from blood units collected in ACD ((prepared by (1) combining: 2.5 g sodium citrate (Sigma S-4641); 1.5 g citric acid (Sigma C-0706); and, 2.0 g dextrose (Sigma G-7528); (2) bringing pH to 4.5; and (3) adding water to bring volume to 100 mL) and using the light spin protocol; this protocol involves centrifugation at room temperature for approximately 20 minutes at speeds up to 160×g. Platelet rich plasma is supplied in units of approximately 200 ml. Each unit is distributed into four 50 mL polypropylene conical tubes for centrifugation, Blood from each donor is maintained separately.
The 50 mL tubes were centrifuged for 15 minutes at 1100 rpm in Sorvall RT6000D (with H1000B rotor). Internal centrifuge temperature was maintained at approximately room temperature (22-24° C.). This spin pelleted cellular components remaining from the PRP preparation. The supernatant was decanted into fresh 50 mL tubes. To avoid carry over of cellular components following the room temperature centrifugation, approximately 5 mL of PRP was left in the tube and discarded. The tubes were capped and inverted 2-3 times and allowed to stand at room temperature for at least 15 minutes following inversion.
Optionally, a Coulter Counter may be used to count platelets from the resting samples during the resting phase. Normal human platelet counts are expected to range from 200,000 to 400,000 per μL of PRP supernatant.
The 50 mL tubes containing PRP supernatant were centrifuged for 15 minutes at 2300-2400 rpm to loosely pellet the platelets. The supernatant from this spin was decanted immediately into a clean cell culture bottle (Corning bottle) and saved in case further centrifugation was needed. The pellet of each tube was resuspended in 2-4 mL of Wash buffer (pH 6.5) (1 L prepared new daily—134 mM NaCl (Sigma S-5150); 3 mM KCl (Sigma P-9333); 1 mM CaCl2 (JT Baker 1311-01); 2 mM MgCl2 (Sigma M-2670); 5 mM glucose (EM 4074-2); 0.3 mM NaH2PO4 (Sigma S-9638)/12 mM NaHCO3 (J T Baker 3506-01); 5 mM HEPES pH 7.4 (Gibco 12379-012); 0.35% BSA (Sigma A-7906); 330 mg Heparin (bovine lung, Sigma H-4898); and 30 mL of ACD) by repeated gentle aspiration using disposable polypropylene sample pipettes.
Wash buffer (pH 6.5) was added to each tube to bring the volume to approximately 40 mL. Each tube was incubated for at least 15 minutes at 37° C.
The tubes were then centrifuged again for 15 minutes at 2300-2400 rpm to loosely pellet the platelets. The supernatant was decanted and discarded. The pellet was resuspended in 2-4 mL of Assay buffer (pH 7.4) (1 L volume—134 mM NaCl; 3 mM KCl; 1 mM CaCl2; 2 mM MgCl2; 5 mM glucose; 0.3 mM NaH2PO4/12 mM NaHCO3; 5 mM HEPES pH 7.4; and 0.35% BSA) by repeated aspiration using disposable polypropylene sample pipettes.
The pooled platelet preparation was counted using a Coulter Counter. The final concentration of platelets was brought to 1×10^6 per μL using Assay buffer pH 7.4. The platelets were rested for a minimum of 45 minutes at 37° C. before use in the assay.
In one embodiment, the compounds were tested in 96-well microtiter filterplates (Millipore Multiscreen-FB opaque plates, #MAFBNOB50). These plates were used in the assay and pre-wet with 50 μL of Assay buffer pH 7.4 then filtered through completely with a Millipore plate vacuum. […]

Where [3] appears, read: washed human platelet membranes.

Structures are written as SMILES. Several values for one entry are separate records, joined by “and”; a condition that tells them apart may be missing. Equal values may be shown once.

In general, IC50 refers to the concentration that gives 50% inhibition. In general, Ki refers to the equilibrium dissociation constant of an inhibitor or competing ligand from its target. A word on the inhibition: it is the share of the control response that was lost under treatment.

T1 sequence (Q9H244 whole entry): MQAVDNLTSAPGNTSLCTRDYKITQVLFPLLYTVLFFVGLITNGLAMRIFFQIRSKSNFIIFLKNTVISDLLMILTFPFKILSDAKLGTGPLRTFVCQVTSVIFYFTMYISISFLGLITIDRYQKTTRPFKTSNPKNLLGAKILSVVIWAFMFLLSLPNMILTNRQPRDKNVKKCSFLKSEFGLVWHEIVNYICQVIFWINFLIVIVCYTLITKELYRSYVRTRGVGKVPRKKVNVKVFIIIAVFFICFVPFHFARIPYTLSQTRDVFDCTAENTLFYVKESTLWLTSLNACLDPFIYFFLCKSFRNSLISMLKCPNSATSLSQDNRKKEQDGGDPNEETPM

Take `CCc1cc2c(N3CCN(C(=O)CC(F)(F)F)CC3)nc(NC[C@@H](O)CO)nc2s1` [Example 36, (2R)-3-({6-Ethyl-4-[4-(3,3,3-trifluoropropanoyl)piperazin-1-yl]thieno[2,3-d]pyrimidin-2-yl}amino)propane-1,2-diol]: in test [1], the IC50 was 1050 nM and 1940 nM; the Ki was 557 nM and 1010 nM; the “[33P]-2MeS-ADP Binding to Recombinant Human P2Y12 Membranes (Assay 3) % Inhibition” value was determined as 70.7%; the inhibition at 10 µM is 75.7%.
Take `CCc1cc2c(N3CCN(C(=O)Cc4ccccc4)CC3)nc(NCc3ccc(F)cc3)nc2s1` [Example 13, 6-Ethyl-N-(4-fluorobenzyl)-4-[4-(phenylacetyl)piperazin-1-yl]thieno[2,3-d]pyrimidin-2-amine]: testing at 10 µM in test [2] gave an inhibition of 45.6%. Besides, in test [2] (setting [3]), the concentration for half-maximal inhibition (IC50) is above 10000 nM.
On to `CCc1cc2c(N3CCN(C(=O)Cc4ccccc4)CC3)nc(NCc3ccco3)nc2s1` [Example 8, 6-Ethyl-N-(2-furylmethyl)-4-[4-(phenylacetyl)piperazin-1-yl]thieno[2,3-d]pyrimidin-2-amine], for which testing at 10 µM in test [2] gave an inhibition of 42.2%. In test [2] (setting [3]), this molecule came in with an IC50 of 9850 nM and a Ki of 9320 nM.
The molecule `CCc1cc2c(N3CCN(C(=O)Cc4ccccc4)CC3)nc(NCc3ccccc3)nc2s1` [Example 15, N-benzyl-6-ethyl-4-[4-(phenylacetyl)piperazin-1-yl]thieno[2,3-d]pyrimidin-2-amine] returned an inhibition at 10 µM in test [2] of 44%. For the same molecule, the IC50 in test [2] (setting [3]) was above 10000 nM.
As for `CCc1cc2c(N3CCN(C(=O)c4cccc(-c5ccccc5)c4)CC3)nc(NC(CO)CO)nc2s1` [Example 32, 2-({4-[4-(1,1′-biphenyl-3-ylcarbonyl)piperazin-1-yl]-6-ethylthieno[2,3-d]pyrimidin-2-yl}amino)propane-1,3-diol], in test [1], the IC50 stood at 96 nM, the Ki is 51 nM and the inhibition at 10 µM was 96.5%.
In test [2], `CCc1cc2c(N3CCN(C(=O)Cc4ccccc4)CC3)nc(NC3CCCCC3)nc2s1` [Example 10, N-Cyclohexyl-6-ethyl-4-[4-(phenylacetyl)piperazin-1-yl]thieno[2,3-d]pyrimidin-2-amine] came in with an inhibition at 10 µM of 37.3%. In test [2] (setting [3]), the IC50 was above 10000 nM.
On to `CCOC(CCNc1nc(N2CCN(C(=O)c3ccc(-c4ccccc4)cc3)CC2)c2cc(CC)sc2n1)OCC` [Example 22, 4-[4-(1,1′-Biphenyl-4-ylcarbonyl)piperazin-1-yl]-N-(3,3-diethoxypropyl)-6-ethylthieno[2,3-d]pyrimidin-2-amine], for which, in test [1], the IC50 was 138 nM, the Ki amounted to 81 nM and the inhibition at 10 µM was found to be 86%.
For `CCc1cc2c(N3CCN(C(=O)Cc4ccccc4)CC3)nc(NCc3cccc(F)c3)nc2s1` [Example 14, 6-Ethyl-N-(3-fluorobenzyl)-4-[4-(phenylacetyl)piperazin-1-yl]thieno[2,3-d]pyrimidin-2-amine], the inhibition at 10 µM in test [2] was 39.9%. For the same molecule, in test [2] (setting [3]), the IC50 was above 10000 nM.
In the case of `CCc1cc2c(N3CCN(C(=O)c4ccc(-c5ccccc5)cc4)CC3)nc(NCCC(=O)NC(CO)CO)nc2s1` [Example 25, N^3-{4-[4-(1,1′-Biphenyl-4-ylcarbonyl)piperazin-1-yl]-6-ethylthieno[2,3-d]pyrimidin-2-yl}-N˜1˜-[2-hydroxy-1-(hydroxymethyl)ethyl]-beta-alaninamide], in test [1], the IC50 worked out at 30 nM, the Ki was determined as 17 nM and the inhibition at 10 µM is 94%.
Consider `CCc1cc2c(N3CCN(C(=O)c4ccc(-c5ccccc5)cc4)CC3)nc(NCCC(=O)O)nc2s1` [Example 24, N-{4-[4-(1,1′-Biphenyl-4-ylcarbonyl)piperazin-1-yl]-6-ethylthieno[2,3-d]pyrimidin-2-yl}-beta-alanine], for which, in test [1], the IC50 turned out to be 13.2 nM, the Ki came to 8 nM and the inhibition at 10 µM is 85%.
In the case of `CCc1cc2c(N3CCN(C(=O)c4ccc(-c5ccccc5)cc4)CC3)nc(NCCN(C)C)nc2s1` [Example 28, N′-{4-[4-(1,1′-biphenyl-4-ylcarbonyl)piperazin-1-yl]-6-ethylthieno[2,3-d]pyrimidin-2-yl}-N,N-dimethylethane-1,2-diamine], in test [1], the IC50 was 44 nM and 47 nM; the Ki is 27 nM and 29 nM; the “[33P]-2MeS-ADP Binding to Recombinant Human P2Y12 Membranes (Assay 3) % Inhibition” value is given as 98.44%; the inhibition at 10 µM worked out at 92.3%.
